{"source": "patent US20260373193A1", "about": "“CARCINOGENESIS REDUCTION WITH PENTAAZA MACROCYLIC RING COMPLEX” (GALERA LABS, LLC, priority 2023, published 2026)", "key": {"[1]": {"system": "female BALB/c mice", "test": "long-term survival of irradiated and unirradiated mice treated or not with GC4419", "assay_type": "in vivo, mouse (female BALB/c)", "protocol": "(§1) All animal studies conducted used female BALB/c mice irradiated at 77-91 days of age and housed for a lifetime study to determine rates of carcinogenesis and survival. Animals were purchased from Charles River Laboratory, shipped to Brookhaven National Laboratory, and irradiated with the doses and ion species described below.\n(§2) Animals were treated or not with GC4419. Those animals treated with GC4419 followed the following strategy. GC4419 was delivered at a dose of 24 mg/kg (mice were weighed prior to drug delivery) interperitoneally (i.p.) at roughly 45-60 minutes prior to radiation exposure. GC4419 was then provided i.p. for the next 6 days, and the animals were shipped to UT Southwestern (UTSW) Medical Center for temporary quarantine before returning to the animal facility. Upon return to UTSW the animals were treated with GC4419 i.p. weekly for another 11 weeks for a total of 12 weeks on treatment.\n(§3) Radiation exposures were whole body. The galactic cosmic ray (GCR) simulation exposures used the beam line at the NASA Space Radiation Laboratory at Brookhaven National Lab (BNL) and the γ-ray exposures used a ^137Cs source at BNL. Subsequent to single dose irradiation, animals were returned to their cages.\n(§4) Galactic cosmic rays (GCR) are heavy ion radiation characteristic of the deep space environment, and the GCR simulation (GCRsim) at BNL mimics the complex radiation environment in space. The GCRsim ions used are described in Table 1 below.\nFIGS. 1A-1D represent survival in cohorts where animals were exposed to single dose whole-body γ-rays or not irradiated (Control), and treated or not with GC4419. FIGS. 1A-1B present preliminary results through approximately 400-600 days post-irradiation depending on the cohort. FIGS. 1C-1D present final results. As expected, the survival curves show in the animals not treated with GC4419, trends to survival decreasing with increasing γ-ray dose from unirradiated Control to 0.75 Gy (FIGS. 1B & 1D) to 1.5 Gy (FIGS. 1A & 1C).\nFIGS. 2A-2D represent survival in cohorts where animals were exposed to single dose whole-body GCRsim radiation or not irradiated (Control), and treated or not with GC4419. FIGS. 2A-2B present results, including preliminary data for unirradiated animals treated with GC4419 (Control+GC4419) cohort through approximately 400 days post-irradiation. FIGS. 2C-2D present final results for all the presented cohorts. As with γ-rays, the survival curves show in the animals not treated with GC4419, trends to survival decreasing with increasing GCRsim dose from unirradiated control to 0.4 Gy to 0.75 Gy. […] This may reflect that GCRsim is a combination of various radiations of varying carcinogenic potential curves.\nFIGS. 3A-3C represent survival in cohorts where unirradiated animals (Control) were treated or not with GC4419. FIG. 3A presents results through approximately 400 days post-irradiation with the range of the y-axis covering 95-100% survival. FIG. 3B-3C present final results with the ranges of the y-axis covering 0-100% and 70-100% survival."}, "[2]": {"system": "ovarian masses or hemorrhagic cysts", "test": "incidence of ovarian masses or hemorrhagic cysts at necropsy", "assay_type": "in vivo, mouse (female BALB/c)", "conditions": "for # Ovary Masses/Cysts / % Yield (percentage of mice with ovarian masses or hemorrhagic cysts): GC4419 24 mg/kg i.p.; for occurrence of ovarian masses and hemorrhagic cysts vs untreated: final results (FIG. 4)", "protocol": "as §1, §2, §3, §4\n(§5) Pathological endpoints were also considered. Specifically, lung cancer induction, or carcinogenesis, and other tumors that are evident in numbers large enough to consider as secondary endpoints. These endpoints are described in the following tables and figure. The term “masses” is used to describe an abnormal growth, evident by eye, within a given tissue; for example, the term “lung masses” is used to describe abnormal tissues found in the lung that are collected for pathologic examination.\n(§6) Given prior experience with the mouse model of radiation-induced carcinogenesis, it is expected that most, if not all, of the lung masses are tumors. For the ovarian masses, some proportion of the masses are expected to be tumors. For observations of hepatosplenomegaly, many of the enlarged livers and spleens may not reflect tumors of those organs. These may, however, may be present as result of hematologic malignancies, such as leukemias, but that was not assessed in this experiment.\nTable 3 presents the incidence of ovarian masses and hemorrhagic cysts observed at necropsy by treatment cohort, including preliminary data for certain γ-ray cohorts through approximately 600 days post-irradiation and for unirradiated animals treated with GC4419 (Control+GC4419) cohort through approximately 400 days post-irradiation. FIG. 4 presents final results for incidence of ovarian masses and hemorrhagic cysts."}, "[3]": {"system": "hepatosplenomegaly", "test": "incidence of hepatosplenomegaly at necropsy", "assay_type": "in vivo, mouse (female BALB/c)", "conditions": "for # Enlarged (hepatosplenomegaly) / % Yield (percentage of mice with hepatosplenomegaly): GC4419 24 mg/kg i.p.", "protocol": "as §1, §2, §3, §4, §5, §6\nTable 4 presents the incidence of hepatosplenomegaly observed at necropsy by treatment cohort, in general through approximately 700 days, for certain γ-ray cohorts through approximately 600 days post-irradiation, and for unirradiated animals treated with GC4419 (Control+GC4419) cohort through approximately 400 days post-irradiation."}, "[4]": {"system": "VEGFr inhibitor-induced pulmonary disease", "conditions": "rat; cited from earlier work"}, "[5]": {"system": "oral mucositis", "conditions": "head-and-neck cancer patients, chemoradiation, Phase IIB; cited from earlier work"}, "[6]": {"system": "kidney damage from cisplatin", "conditions": "cisplatin therapy for cancer; cited from earlier work"}, "[7]": {"system": "Non-Small Cell Lung Carcinoma Cell Lines", "conditions": "NSCLC cell lines; with cisplatin or cisplatin plus radiation; cited from earlier work"}, "[8]": {"system": "acute and sub-chronic radiation damage; platinum therapy kidney damage", "conditions": "mucositis, pulmonary pneumonitis and fibrosis, liver damage; cited from earlier work"}, "[9]": {"system": "established tumors", "conditions": "cited from earlier work"}}, "note": "“Also recorded” adds a separate entry of the source.", "data": [{"molecule": "[Cl][Mn][Cl].c1cc2nc(c1)CN[C@H]1CCCC[C@@H]1NCCN[C@H]1CCCC[C@@H]1NC2", "note": "[GC4419]", "values": [{"measurement": "survival vs irradiated untreated", "setting": "[1]; GCRsim 0.4 Gy, 24 mg/kg i.p., final results", "result": "neither increases nor decreases survival"}, {"measurement": "survival vs irradiated untreated", "setting": "[1]; GCRsim 0.75 Gy, 24 mg/kg i.p., final results, p<0.05", "result": "statistically significantly increased survival"}, {"measurement": "survival vs unirradiated untreated", "setting": "[1]; unirradiated (Control), 24 mg/kg i.p., final results, p<0.01 (FIGS. 3A-3C), 24 mg/kg", "result": "statistically significantly increased survival; also recorded: appears to increase survival in unirradiated animals"}, {"measurement": "survival, overall", "setting": "[1]; variety of radiation types and doses", "result": "appears to have an effect on survival in animals exposed to a variety of radiation types and doses"}, {"measurement": "survival vs unirradiated animals not treated with GC4419", "setting": "[1]; γ-ray 0.75 Gy, 24 mg/kg i.p., final results", "result": "equivalent survival to unirradiated animals not treated with GC4419"}, {"measurement": "survival vs irradiated untreated", "setting": "[1]; γ-ray 0.75 Gy, 24 mg/kg i.p., final results, p<0.01 (FIG. 1D)", "result": "statistically significantly increased survival"}, {"measurement": "survival vs irradiated untreated", "setting": "[1]; γ-ray 1.5 Gy, 24 mg/kg i.p., final results, p<0.05 (FIG. 1C)", "result": "statistically significantly increased survival"}, {"measurement": "# Ovary Masses/Cysts", "setting": "[2]; GCRsim 0.4 Gy, 224 mice", "result": 26}, {"measurement": "% Yield (percentage of mice with ovarian masses or hemorrhagic cysts)", "setting": "[2]; GCRsim 0.4 Gy, 224 mice, untreated pair 12.5", "result": 11.6, "unit": "%"}, {"measurement": "# Ovary Masses/Cysts", "setting": "[2]; GCRsim 0.75 Gy, 248 mice", "result": 43}, {"measurement": "% Yield (percentage of mice with ovarian masses or hemorrhagic cysts)", "setting": "[2]; GCRsim 0.75 Gy, 248 mice, untreated pair 24.2", "result": 17.3, "unit": "%"}, {"measurement": "occurrence of ovarian masses and hemorrhagic cysts vs untreated", "setting": "[2]; GCRsim 0.75 Gy", "result": "markedly decreased occurrence of ovarian masses and hemorrhagic cysts"}, {"measurement": "# Ovary Masses/Cysts", "setting": "[2]; unirradiated (0 Gy), 235 mice, preliminary, approx. 400 days", "result": 0}, {"measurement": "% Yield (percentage of mice with ovarian masses or hemorrhagic cysts)", "setting": "[2]; unirradiated (0 Gy), 235 mice, preliminary, approx. 400 days, untreated pair 10.6", "result": 0.0, "unit": "%"}, {"measurement": "occurrence of ovarian masses and hemorrhagic cysts vs untreated", "setting": "[2]; unirradiated", "result": "markedly decreased occurrence of ovarian masses and hemorrhagic cysts"}, {"measurement": "# Ovary Masses/Cysts", "setting": "[2]; γ-ray 0.75 Gy, 248 mice, preliminary for certain γ-ray cohorts (approx. 600 days)", "result": 22}, {"measurement": "% Yield (percentage of mice with ovarian masses or hemorrhagic cysts)", "setting": "[2]; γ-ray 0.75 Gy, 248 mice, preliminary for certain γ-ray cohorts (approx. 600 days), untreated pair 28.9", "result": 8.8, "unit": "%"}, {"measurement": "occurrence of ovarian masses and hemorrhagic cysts vs untreated", "setting": "[2]; γ-ray 0.75 Gy, statistically significant, p<0.05", "result": "markedly decreased occurrence of ovarian masses and hemorrhagic cysts"}, {"measurement": "# Ovary Masses/Cysts", "setting": "[2]; γ-ray 1.5 Gy, 248 mice, preliminary for certain γ-ray cohorts (approx. 600 days)", "result": 24}, {"measurement": "% Yield (percentage of mice with ovarian masses or hemorrhagic cysts)", "setting": "[2]; γ-ray 1.5 Gy, 248 mice, preliminary for certain γ-ray cohorts (approx. 600 days), untreated pair 21.7", "result": 9.6, "unit": "%"}, {"measurement": "# Enlarged (hepatosplenomegaly)", "setting": "[3]; GCRsim 0.4 Gy, 224 mice, approx. 700 days", "result": 33}, {"measurement": "% Yield (percentage of mice with hepatosplenomegaly)", "setting": "[3]; GCRsim 0.4 Gy, 224 mice, approx. 700 days, untreated pair 13.9", "result": 14.7, "unit": "%"}, {"measurement": "# Enlarged (hepatosplenomegaly)", "setting": "[3]; GCRsim 0.75 Gy, 248 mice, approx. 700 days", "result": 36}, {"measurement": "% Yield (percentage of mice with hepatosplenomegaly)", "setting": "[3]; GCRsim 0.75 Gy, 248 mice, approx. 700 days, untreated pair 7.7", "result": 14.5, "unit": "%"}, {"measurement": "# Enlarged (hepatosplenomegaly)", "setting": "[3]; unirradiated (0 Gy), 235 mice, approx. 400 days", "result": 1}, {"measurement": "% Yield (percentage of mice with hepatosplenomegaly)", "setting": "[3]; unirradiated (0 Gy), 235 mice, approx. 400 days, untreated pair 5.1", "result": 0.4, "unit": "%"}, {"measurement": "hepatosplenomegaly incidence vs untreated", "setting": "[3]; within paired cohorts", "result": "no consistent trend to increased or decreased incidence within paired cohorts"}, {"measurement": "# Enlarged (hepatosplenomegaly)", "setting": "[3]; γ-ray 0.75 Gy, 248 mice, certain γ-ray cohorts approx. 600 days", "result": 9}, {"measurement": "% Yield (percentage of mice with hepatosplenomegaly)", "setting": "[3]; γ-ray 0.75 Gy, 248 mice, certain γ-ray cohorts approx. 600 days, untreated pair 10.6", "result": 3.6, "unit": "%"}, {"measurement": "# Enlarged (hepatosplenomegaly)", "setting": "[3]; γ-ray 1.5 Gy, 248 mice, certain γ-ray cohorts approx. 600 days", "result": 17}, {"measurement": "% Yield (percentage of mice with hepatosplenomegaly)", "setting": "[3]; γ-ray 1.5 Gy, 248 mice, certain γ-ray cohorts approx. 600 days, untreated pair 7.5", "result": 6.8, "unit": "%"}, {"measurement": "pulmonary disease", "setting": "[4]", "result": "attenuate VEGFr inhibitor-induced pulmonary disease"}, {"measurement": "oral mucositis", "setting": "[5]", "result": "reduce oral mucositis"}, {"measurement": "kidney damage from cisplatin", "setting": "[6]", "result": "reduce kidney damage from cisplatin therapy"}, {"measurement": "response to cisplatin and cisplatin plus radiation", "setting": "[7]", "result": "Enhances the Response of Non-Small Cell Lung Carcinoma Cell Lines to Cisplatin and Cisplatin Plus Radiation"}, {"measurement": "overt acute and sub-chronic radiation damage; platinum therapy kidney damage", "setting": "[8]", "result": "reduce overt acute and sub-chronic radiation damage"}, {"measurement": "efficacy of radiation and other therapies", "setting": "[9]", "result": "enhance the efficacy of radiation and other therapies"}]}]}
